Read-outs that look alike come from different tables or passages of the source. One block for each compound: values may come before it. Non-standard residues stand in square brackets, D forms with d. Residues, ends and D or L forms follow the SMILES beside them. *: point of attachment. 2Nal = N[C@@H](Cc1ccc2ccccc2c1)C(=O)O; Tle = CC(C)(C)[C@H](N)C(=O)O; tBu = CC(C)(C)*
Legend:
[1] = tested on: peptide-producing enzyme (Mono S fraction) from Empedobacter brevis strain FERM BP-8113; assay: Enzyme substrate specificity (1)-(10), (13), (14); format: biochemical; design: key: +: those peptides for which production was confirmed but which were unable to be quantified due to the absence of a standard; a trace amount
Source text: Ester specificity was examined in the case of using L-amino acid ester for the carboxy component. […] The amounts of L-Ala-L-Gln produced in this reaction are shown in Table 4 (HCl represents hydrochloride in Table 4). Peptide production was examined in the case of using L-alanine methyl ester for the carboxy component and using various L-amino acids for the amine component. […] (The “+” mark indicates those peptides for which production was confirmed but which were unable to be quantified due to the absence of a standard, while “tr” indicates a trace amount.) Peptide production was examined in the case of using various types of L-amino acid methyl esters for the carboxy component and using L-glutamine for the amine component. […] Peptide production was examined in the case of using various L-amino acid methyl esters for the carboxy component and various L-amino acids for the amine component. […] (The “tr” indicates a trace amount.) Furthermore, Tween-80 was added to the reaction system to a final concentration of 0.1% in the case of using L-Trp-OMe. (The “+” mark indicates those peptides for which production was confirmed but which were unable to be quantified due to the absence of a standard.) […] (The “tr” indicates a trace amount.) Peptide production was examined using various L-amino acid amides for the carboxy component, and various L-amino acids for the amine component. […] Peptide production was examined in the case of using various L-alanine methyl esters for the carboxy component and C-protected L-amino acids for the amine component. […] Peptide production was examined in the case of using various amino acid methyl esters for the carboxy component and methylamine for the amine component. […] Peptide production was examined in the case of using β-amino acid ester for the carboxy component or β-amino acid for the amine component. […] (The “tr” indicates a trace amount.) Oligopeptide production was examined in the case of using L-amino acid ester for the carboxy component and peptide for the amine component. […] Substrate specificity was additionally assessed using the same enzyme fraction as that used in Example 5. […] (A “+” mark indicates those for which production was confirmed but which were unable to be quantified due to the absence of a standard, while “tr” indicates a trace amount). Substrate specificity with respect to oligopeptide production was assessed using the same enzyme fraction as Example 26. […] (A “+” mark indicates those for which production was confirmed but which were unable to be quantified due to the absence of a standard, while “tr” indicates a trace amount). It should be noted that hydrochlorides were used for all of the carboxy components.

[2] = tested on: Empedobacter brevis strain FERM BP-8113 microbial cells; assay: Production of peptide using microbial cells of Empedobacter brevis; format: cell-based; conditions: microbial cell suspension 100 g/L mixed 1:1 with 200 mM carboxy component and 400 mM amino acid, pH 9.0, 10 mM EDTA, 18° C., 2 hours
Experimental: A 50 mL medium (pH 6.2) containing 5 grams (hereinafter, “g”) of glucose, 5 g of ammonium sulfate, 1 g of monopotassium phosphate, 3 g of dipotassium phosphate, 0.5 g of magnesium sulfate, 10 g of yeast extract and 10 g of peptone in 1 liter (hereinafter, “L”) was transferred to a 500 mL Sakaguchi flask and sterilized at 115° C. for 15 minutes. This medium,was then inoculated with one loopful of the culture broth of Empedobacter brevis strain FERM BP-8113 (Depositary institution: National Institute for Advanced Industrial Science and Technology, International Patent Organism Depositary, Address of depositary institution: Chuo Dai-6, 1-1 Higashi 1-Chome, Tsukuba-shi, Ibaraki-ken, Japan, International deposit transfer date: Jul. 8, 2002) that had been cultured at 30° C. for 16 hours in the same medium, followed by shake culturing at 30° C. for 16 hours and 120 strokes/min.

[3] = tested on: peptide-producing enzyme (Mono S fraction) from Empedobacter brevis strain FERM BP-8113; assay: Enzyme substrate specificity (1)-(10), (13), (14); format: biochemical; conditions: L-amino acid 150 mM, pH 9.0, 25° C., 3 hours
In short: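 Mono S-purified peptide-forming enzyme from Empedobacter brevis FERM BP-8113, given L-amino acid esters (hydrochlorides) or amides as carboxy component with amino acids, C-protected amino acids, methylamine, β-amino acids or peptides as amine component. Dipeptide/oligopeptide product quantified; Tween-80 0.1% added with L-Trp-OMe.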

[4] = tested on: enzyme (SP-Sepharose HP fraction) derived from Sphingobacterium sp. strain FERM BP-8124; format: biochemical; design: key to Produced peptide (mM): +: those peptides for which production was confirmed but which were unable to be quantified due to the absence of a standard; a trace amount; conditions: 0.33 units enzyme, pH 9.0, 25° C., 1.5 hours
Experimental: Substrate specificity was examined for enzyme derived from Sphingobacterium sp. strain FERM BP-8124 (Depositary institution: National Institute for Advanced Industrial Science and Technology, International Patent Organism Depositary, Address of depositary institution: Central. 6, 1-1-1 Higashi, Tsukuba City, Ibaraki Prefecture, Japan, International deposit date: Jul. 22, 2002). 100 μl of 100 mM borate buffer (pH 9.0) containing the various carboxy components at a final concentration of 100 mM and the various amine components at a final concentration of 150 mM shown in Tables 15-1 to 15-4, the SP-Sepharose HP fraction enzyme purified in Example 22 (addition of 0.33 units in the reaction liquid) and 10 mM EDTA were allowed to react at 25° C. for 1.5 hours. […] In addition, hydrochlorides were used for all carboxy components.
Substrate specificity with respect to oligopeptide production was examined for enzyme derived from Sphingobacterium sp. strain FERM BP-8124 (Depositary institution: National Institute for Advanced Industrial Science and Technology,.International Patent Organism Depositary, Address of depositary institution: Chuo Dai-6, 1-1 Higashi 1-Chome, Tsukuba-shi, Ibaraki-ken, Japan, International deposit date: Jul. 22, 2002). A 100 μl aliquot of 100 mM borate buffer (pH 9.0) containing the various carboxy components at a final concentration of 100 mM and the various amine components at a final concentration of 150 mM shown in Table 16, the SP-Sepharose HP fraction enzyme purified in Example 22 (addition of 0.33 units in the reaction liquid) and 10 mM EDTA were allowed to react for 1.5 hours at 25° C. Furthermore, hydrochloride salts were used for all carboxy components.

[5] = L-amino acid methyl ester hydrochloride 100 mM, 150 mM L-glutamine, pH 9.0, 25° C., 3 hours
[6] = carboxy component 100 mM, amine component 150 mM, 0.1 unit enzyme, 25° C., reaction time 3 hr
[7] = L-amino acid methyl ester hydrochloride 100 mM
[8] = Table 15-3, carboxy component 100 mM, amine component 150 mM
[9] = 100 mM L-alanine methyl ester hydrochloride
[10] = Table 15-1, carboxy component 100 mM, amine component 150 mM
[11] = 100 mM L-alanine methyl ester hydrochloride, L-amino acid 150 mM, pH 9.0, 25° C., 3 hours

Structure (SMILES): CC(C)(C)[C@H](N)C(=O)N[C@@H](CCC(N)=O)C(=O)O [H-t-Leu-H-Gln-OH] (H-[Tle]-Gln-OH)
- Produced peptide (mM) [1, 6]: tr

Structure (SMILES): NC(=O)CC[C@H](NC(=O)[C@@H](N)Cc1ccc(Cl)cc1)C(=O)O [H-Cl-F-Phe-H-Gln-OH]
- Produced peptide (mM) ([1]; carboxy component 25 mM, amine component 50 mM, 0.1 unit enzyme, 25° C., reaction time 3 hr): tr

Structure (SMILES): CC(C)C[C@H](NC(=O)[C@@H](N)[C@@H](C)O)C(=O)O [L-Thr-L-Leu] (H-Thr-Leu-OH)
- Produced peptide [2]: 23.0 mM
- Produced peptide [3, 7]: 28.4 mM
- Produced peptide [4, 8]: 15.3 mM

Structure (SMILES): C[C@H](NC(=O)CCN)C(=O)O [β-Ala-L-α-Ala]
- Produced peptide (mM) ([1]; β-amino acid ester as carboxy component or β-amino acid as amine component, 100 mM / 150 mM, pH 9.0, 25° C., 3 hours): tr

Structure (SMILES): NC(=O)CC[C@H](NC(=O)CC[C@H](N)C(=O)O)C(=O)O [γ-L-Glu-L-Gln]
- Produced peptide (mM) [1, 5]: +

Structure (SMILES): NCC(=O)N[C@@H](Cc1cnc[nH]1)C(=O)O [Gly-L-His] (H-Gly-His-OH)
- Produced peptide [2]: 22.1 mM
- Produced peptide [3, 7]: 31.6 mM
- Produced peptide [4, 8]: 36.2 mM

Structure (SMILES): NC(=O)CC[C@H](NC(=O)C[C@H](N)C(=O)O)C(=O)O [β-L-Asp-L-Gln]
- Produced peptide (mM) [1, 5]: tr

Structure (SMILES): NC(=O)CC[C@H](NC(=O)[C@@H](N)Cc1ccc2ccccc2c1)C(=O)O [H-2-Nal-H-Gln-OH] (H-[2Nal]-Gln-OH)
- Produced peptide (mM) ([1]; carboxy component 40 mM, amine component 40 mM, 0.1 unit enzyme, 25° C., reaction time 3 hr): tr

Structure (SMILES): CC[C@H](C)[C@H](N)C(=O)N[C@@H](CCSC)C(=O)O [L-Ile-L-Met] (H-Ile-Met-OH)
- Produced peptide [2]: 8.3 mM
- Produced peptide [3, 7]: 10.0 mM
- Produced peptide [4, 8]: 5.1 mM

Structure (SMILES): CC(C)(C)OC[C@H](N)C(=O)N[C@@H](CCC(N)=O)C(=O)O [H-Ser(tBu)-Gln-OH] (H-Ser(tBu)-Gln-OH)
- Produced peptide (mM) ([1]; carboxy component 100 mM, amine component 150 mM, 0.1 unit enzyme, 25° C., reaction time 2 hr): tr

Structure (SMILES): NC(=O)CC[C@H](NC(=O)[C@@H](N)CS)C(=O)O [L-CySH-L-Gln] (H-Cys-Gln-OH)
- Produced peptide (mM) [1, 5]: +

Structure (SMILES): NC(=O)CC[C@H](NC(=O)[C@@H](N)Cc1cnc[nH]1)C(=O)O [L-His-L-Gln] (H-His-Gln-OH)
- Produced peptide (mM) [1, 5]: +

Structure (SMILES): C[C@H](N)C(=O)N[C@@H](CCCN=C(N)N)C(=O)O [L-Ala-L-Arg] (H-Ala-Arg-OH)
- Produced peptide [2]: 72.1 mM
- Produced peptide [3, 9]: 88.0 mM
- Produced peptide [4, 10]: 72.2 mM

Structure (SMILES): NCCCC[C@H](N)C(=O)N[C@@H](CCC(N)=O)C(=O)O [L-Lys-L-Gln] (H-Lys-Gln-OH)
- Produced peptide (mM) [1, 5]: +

Now from value to compound, other results behind:

- Produced peptide (mM) [1, 5]: +
Structure (SMILES): NC(=O)CCC(NC(=O)C(N)Cc1c[nH]c2ccccc12)C(=O)O [L-Trp-L-Gln] (H-Trp-Gln-OH; configuration not given here)

- Produced peptide (mM) [1, 5]: +
Structure (SMILES): CC(C)C[C@H](N)C(=O)N[C@@H](CCC(N)=O)C(=O)O [L-Leu-L-Gln] (H-Leu-Gln-OH)

- Produced peptide (mM) [1, 6]: tr
Structure (SMILES): CN[C@@H](C)C(=O)N[C@@H](Cc1ccccc1)C(=O)O [H-N-Me-Ala-Phe-OH]

- Produced peptide [3, 9]: 83.3 mM
- Produced peptide ([3]; L-amino acid amide hydrochloride 100 mM as carboxy component): 3.4 mM
- Produced peptide [4, 10]: 86.9 mM
- Produced peptide (mM) ([4]; Table 15-4, amides or methylamine as components, 100 mM / 150 mM): tr
Structure (SMILES): CSCC[C@H](NC(=O)[C@H](C)N)C(=O)O [L-Ala-L-Met] (H-Ala-Met-OH)
- Produced peptide [2]: 68.3 mM

- Produced peptide [3, 9]: 74.4 mM
- Produced peptide [4, 10]: 69.5 mM
Structure (SMILES): C[C@H](N)C(=O)N[C@@H](Cc1ccccc1)C(=O)O [L-Ala-L-Phe]
- Produced peptide [2]: 62.4 mM

- Produced peptide [3, 7]: 38.0 mM
- Produced peptide [4, 8]: 9.9 mM
Structure (SMILES): N[C@@H](CO)C(=O)N[C@@H](CO)C(=O)O [L-Ser-L-Ser] (H-Ser-Ser-OH)
- Produced peptide [2]: 29.0 mM

- Produced peptide [3, 9]: 62.5 mM
- Produced peptide [4, 10]: 43.8 mM
Structure (SMILES): C[C@H](N)C(=O)N[C@@H](CO)C(=O)O [L-Ala-L-Ser] (H-Ala-Ser-OH)
- Produced peptide [2]: 51.3 mM

- Produced peptide (mM) [1, 11]: +
- Produced peptide (mM) [4, 10]: +
Structure (SMILES): C[C@H](N)C(=O)N[C@@H](CS)C(=O)O [L-Ala-L-CySH] (H-Ala-Cys-OH)

- Produced peptide [3, 9]: 45.3 mM
- Produced peptide [4, 10]: 33.0 mM
Structure (SMILES): CC(C)C[C@H](NC(=O)[C@H](C)N)C(=O)O [L-Ala-L-Leu] (H-Ala-Leu-OH)
- Produced peptide [2]: 38.2 mM

- Produced peptide (mM) ([1]; L or D amino acid methyl ester hydrochloride 100 mM, L or D amino acid 150 mM, pH 9.0, 25° C., 3 hours): tr
Structure (SMILES): C[C@@H](N)C(=O)N[C@H](CCC(N)=O)C(=O)O [D-Ala-D-Gln] (H-[dA]-[dQ]-OH)

- Produced peptide (mM) [1, 6]: tr
Structure (SMILES): NC(=O)CC[C@H](NC(=O)[C@@H](N)Cc1ccc(F)cc1)C(=O)O [H-p-F-Phe-H-Gln-OH]

- Produced peptide (mM) [1, 5]: +
Structure (SMILES): NC(=O)CC[C@H](NC(=O)[C@@H](N)CC(N)=O)C(=O)O [L-Asn-L-Gln] (H-Asn-Gln-OH)

- Produced peptide (mM) [1, 5]: +
Structure (SMILES): NC(=O)CC[C@H](NC(=O)[C@@H](N)CCC(=O)O)C(=O)O [α-L-Glu-L-Gln] (H-Glu-Gln-OH)

- Produced peptide (mM) [1, 11]: tr
- Produced peptide [4, 10]: 1.5 mM
Structure (SMILES): C[C@H](N)C(=O)N1CCC[C@H]1C(=O)O [L-Ala-L-Pro] (H-Ala-Pro-OH)

- Produced peptide (mM) [1, 5]: tr
- Produced peptide ([4]; Table 15-2, carboxy component 100 mM, L-Gln 150 mM): 0.05 mM
Structure (SMILES): NC(=O)CC[C@H](NC(=O)[C@@H](N)CC(=O)O)C(=O)O [α-L-Asp-L-Gln] (H-Asp-Gln-OH)
